# Measurements published in patent publication US10533015B1, “Opioid receptor antagonist prodrugs” (Nirsum Laboratories, Inc., priority 2019, dated 2020).
# Read-outs that look alike come from different tables or passages of the source.
# Tests used:
# [1] = Plasma stability assay, rat plasma; type: in vitro ADME; details: 10 μM, 37° C.
# Protocol: Plasma stability determination of the test compounds in rat, dog, cynomolgus monkey and human plasma is performed using HPLC-MS. For rat, incubations are carried out in 96-well polypropylene plates in 5 aliquots of 70 μL each (one for each time point). […] Five time points are analyzed (0, 15, 120, 480 and 1440 min). For dog, monkey and human, test compounds (2 μM, final solvent concentration 1%) were also incubated at 37° C. and analyzed at five time points (0, 10, 30, 60 and 120 min). All incubations are performed in duplicates. The samples are analyzed by HPLC-MS. The percentage of parent compound remaining after incubation in plasma is determined.
# [2] = Polymorph screening of solid state drug substances; details: for Dry method and appearance: after stirring 50 °C 72 hours, dried solid; for XRPD results (Dried): dried solid after 50 °C 72 hours; for Visual observation 50° C. / Visual observation RT: target conc. 100 mg/ml
# [3] = heating temp. 60 °C, obs. temp. 25 °C
# [4] = heating temp. 40 °C, obs. temp. 40 °C
# [5] = heating temp. 60 °C, obs. temp. 40 °C
# [6] = section 'Solubility by volumetric flask method', heating temp. 40 °C, obs. temp. 40 °C
compound,measurement,setting,value
"CCCCCCCCCCCCCCCCCCCC(=O)Oc1ccc2c3c1O[C@H]1C(=O)CC[C@@]4(O)C(C2)N(CC2CC2)CC[C@]314 [Compound 50, (4aS,7aR,12bS)-3-(cyclopropylmethyl)-4a-hydroxy-7-oxo-2,3,4,4a,5,6,7,7a-octahydro-1H-4,12-methanobenzofuro[3,2-e]isoquinolin-9-yl iconsanoate]",% remaining at time point,[1]; 0 min,100%
same,% remaining at time point,[1]; 15 min,114.5%
same,% remaining at time point,[1]; 120 min,102.7%
same,% remaining at time point,[1]; 480 min,83.3%
same,% remaining at time point,[1]; 1440 min,73.9%
same,Approximate Solubility (mg/mL) in Excipient: Cottonseed oil,[3],<51 mg/mL
same,Approximate Solubility (mg/mL) in Excipient: Sesame oil,[3],<52 mg/mL
same,Equilibrium solubility (mg/mL) Water,[4],<0.001 mg/mL
"C=C1CC[C@@]2(O)C3Cc4ccc(OCOC(=O)OCCCCCCCCCCCCCC)c5c4[C@@]2(CCN3CC2CC2)[C@H]1O5 [Compound 25, (((4aS,7aS,12bS)-3-(cyclopropylmethyl)-4a-hydroxy-7-methylene-2,3,4,4a,5,6,7,7a-octahydro-1H-4,12-methanobenzofuro[3,2-e]isoquinolin-9-yl)oxy)methyl tetradecyl carbonate]",% remaining at time point,[1]; 0 min,100%
same,% remaining at time point,[1]; 15 min,82.6%
same,% remaining at time point,[1]; 120 min,69.3%
same,% remaining at time point,[1]; 480 min,62.2%
same,% remaining at time point,[1]; 1440 min,51.7%
same,Approximate Solubility (mg/mL) in Excipient: Cottonseed oil,[3],>414 mg/mL
same,Equilibrium solubility (mg/mL) Water,[4],<0.001 mg/mL
"C=C1CC[C@@]2(O)C3Cc4ccc(OC(=O)OCCCCCCCC)c5c4[C@@]2(CCN3CC2CC2)[C@H]1O5 [Compound 17, (4aS,7aS,12bS)-3-(cyclopropylmethyl)-4a-hydroxy-7-methylene-2,3,4,4a,5,6,7,7a-octahydro-1H-4,12-methanobenzofuro[3,2-e]isoquinolin-9-yl octyl carbonate]",% remaining at time point,[1]; 0 min,100%
same,% remaining at time point,[1]; 15 min,0%
same,% remaining at time point,[1]; 120 min,0%
same,% remaining at time point,[1]; 480 min,0%
same,% remaining at time point,[1]; 1440 min,0%
"CCCCCCCCOC(=O)Oc1ccc2c3c1O[C@H]1C(=O)CC[C@@]4(O)C(C2)N(CC2CC2)CC[C@]314 [Compound 23, (4aS,7aR,12bS)-3-(cyclopropylmethyl)-4a-hydroxy-7-oxo-2,3,4,4a,5,6,7,7a-octahydro-1H-4,12-methanobenzofuro[3,2-e]isoquinolin-9-yl octyl carbonate]",% remaining at time point,[1]; 0 min,100%
same,% remaining at time point,[1]; 15 min,0%
same,% remaining at time point,[1]; 120 min,0%
same,% remaining at time point,[1]; 480 min,0%
same,% remaining at time point,[1]; 1440 min,0%
"C=C1CC[C@@]2(O)C3Cc4ccc(OC(=O)CCCCCCCCCCCCCCCCCCC)c5c4[C@@]2(CCN3CC2CC2)[C@H]1O5 [Compound 16, (4aS,7aS,12bS)-3-(cyclopropylmethyl)-4a-hydroxy-7-methylene-2,3,4,4a,5,6,7,7a-octahydro-1H-4,12-methanobenzofuro[3,2-e]isoquinolin-9-yl icosanoate]",Approximate Solubility (mg/mL) in Excipient: Cottonseed oil,[4],57 to 67 mg/mL
same,Approximate Solubility (mg/mL) in Excipient: Cottonseed oil,[5],201 to 403 mg/mL
same,Approximate Solubility (mg/mL) in Excipient: Ethanol,[4],<25 mg/mL
same,Approximate Solubility (mg/mL) in Excipient: Sesame oil,[4],68 to 81 mg/mL
same,Approximate Solubility (mg/mL) in Excipient: Sesame oil,[5],202 to 404 mg/mL
same,Dry method and appearance,[2]; Acetone,Evaporation/white powder
same,XRPD results (Dried),[2]; Acetone,Pattern A
same,Visual observation 50° C.,[2]; Acetone,Clear
same,Visual observation RT,[2]; Acetone,Slurry
same,Dry method and appearance,[2]; EtOAc,Evaporation/white powder
same,XRPD results (Dried),[2]; EtOAc,Pattern A
same,Visual observation 50° C.,[2]; EtOAc,Clear
same,Visual observation RT,[2]; EtOAc,Slurry
same,Dry method and appearance,[2]; Heptane,Centrifugation/white powder
same,XRPD results (Dried),[2]; Heptane,Pattern A
same,Visual observation 50° C.,[2]; Heptane,Slurry
same,Visual observation RT,[2]; Heptane,Slurry
same,Dry method and appearance,[2]; Isopropanol,Centrifugation/white powder
same,XRPD results (Dried),[2]; Isopropanol,Pattern A
same,Visual observation 50° C.,[2]; Isopropanol,Slurry
same,Visual observation RT,[2]; Isopropanol,Slurry
same,Dry method and appearance,[2]; MTBE,Evaporation/white powder
same,XRPD results (Dried),[2]; MTBE,Pattern A
same,Visual observation 50° C.,[2]; MTBE,Clear
same,Visual observation RT,[2]; MTBE,Clear
"CCCCCCCCCCCOC(=O)OCOc1ccc2c3c1O[C@H]1C(=O)CC[C@@]4(O)C(C2)N(CC2CC2)CC[C@]314 [Compound 4, (((4aS,7aR,12bS)-3-(cyclopropylmethyl)-4a-hydroxy-7-oxo-2,3,4,4a,5,6,7,7a-octahydro-1H-4,12-methanobenzofuro[3,2-e]isoquinolin-9-yl)oxy)methyl undecyl carbonate]",Solubility by volumetric flask method: Cottonseed oil,[3],>395.3 mg/mL
same,Solubility by volumetric flask method: Sesame oil,[3],>400.4 mg/mL
same,Equilibrium solubility (mg/mL) Water,[6],<0.001 mg/mL
"C=C1CC[C@@]2(O)C3Cc4ccc(OC(=O)OCCCCCCCCCCC)c5c4[C@@]2(CCN3CC2CC2)[C@H]1O5 [Compound 3, (4aS,7aS,12bS)-3-(cyclopropylmethyl)-4a-hydroxy-7-methylene-2,3,4,4a,5,6,7,7a-octahydro-1H-4,12-methanobenzofuro[3,2-e]isoquinolin-9-yl undecyl carbonate]",Solubility by volumetric flask method: Cottonseed oil,[3],>399.12 mg/mL
same,Solubility by volumetric flask method: Sesame oil,[3],>400.7 mg/mL
same,Equilibrium solubility (mg/mL) Water,[6],<0.001 mg/mL
"CCCCCCCCCCCC(=O)OCOc1ccc2c3c1O[C@H]1C(=O)CC[C@@]4(O)C(C2)N(CC2CC2)CC[C@]314 [Compound 48, (((4aS,7aR,12bS)-3-(cyclopropylmethyl)-4a-hydroxy-7-oxo-2,3,4,4a,5,6,7,7a-octahydro-1H-4,12-methanobenzofuro[3,2-e]isoquinolin-9-yl)oxy)methyl dodecanoate]",Approximate Solubility (mg/mL) in Excipient: Cottonseed oil,[3],>410.5 mg/mL
"C=C1CC[C@@]2(O)C3Cc4ccc(OC(=O)OCCCCCCCCCCCCCCCCCC)c5c4[C@@]2(CCN3CC2CC2)[C@H]1O5 [Compound 33, (4aS,7aS,12bS)-3-(cyclopropylmethyl)-4a-hydroxy-7-methylene-2,3,4,4a,5,6,7,7a-octahydro-1H-4,12-methanobenzofuro[3,2-e]isoquinolin-9-yl octadecyl carbonate]",Approximate Solubility (mg/mL) in Excipient: Cottonseed oil,[3],<50 mg/mL
same,Approximate Solubility (mg/mL) in Excipient: Sesame oil,[3],<51 mg/mL
same,Equilibrium solubility (mg/mL) Water,[4],<0.001 mg/mL
"CCCCCCCC/C=C\CCCCCCCCCCCC(=O)Oc1ccc2c3c1O[C@H]1C(=O)CC[C@@]4(O)C(C2)N(CC2CC2)CC[C@]314 [Compound 22, (4aS,7aR,12bS)-3-(cyclopropylmethyl)-4a-hydroxy-7-oxo-2,3,4,4a,5,6,7,7a-octahydro-1H-4,12-methanobenzofuro[3,2-e]isoquinolin-9-yl (Z)-docos-13-enoate]",Approximate Solubility (mg/mL) in Excipient: Cottonseed oil,[3],67 to 80 mg/mL
same,Approximate Solubility (mg/mL) in Excipient: Cottonseed oil,[5],>405.9 mg/mL
same,Approximate Solubility (mg/mL) in Excipient: Ethanol,[5],>397.7 mg/mL
same,Approximate Solubility (mg/mL) in Excipient: Sesame oil,[3],67 to 80 mg/mL
same,Approximate Solubility (mg/mL) in Excipient: Sesame oil,[5],>401.9 mg/mL
Enalapril maleate salt [reference compound],% remaining at time point,[1]; 0 min,100%
same,% remaining at time point,[1]; 15 min,44%
same,% remaining at time point,[1]; 120 min,2.9%
same,% remaining at time point,[1]; 480 min,8.2%
same,% remaining at time point,[1]; 1440 min,4.8%
